Data reported in patent publication US20250313555A1, “2-SUBSTITUTED THIAZOLE AND BENZOTHIAZOLE COMPOSITIONS AND METHODS AS DUX4 INHIBITORS” (ALTAY THERAPEUTICS, INC., priority 2022, published 2025).

How the values were obtained:
Assay type in all cases: cell-based
[1] = Cell cytotoxicity 50 assay (CC50), HEK cells; conditions: human
Protocol: (§1) Cell Cytotoxicity 50 Assay Protocol (CC50) Into a deep well block (DWB), the media for the appropriate cell line (450 μL/well) was added into wells 1-10. Into DWB well 2, 10 mM of drug solution (13.5 μL) was added, followed by an additional volume of the medium (225 μL). The well was pipetted up/down four times. A portion (225 μL) was transferred to well 3, and this process was repeated up to well 10. Using a multichannel pipet, a smaller portion (50 μL/well) was removed from all wells in the DWB and then dispensed on top of the cells in each corresponding row. After adding the drug, the plate was incubated at 37° C. for 72 h. Using a multi-channel pipet, pre-warmed cell titer glo reagent (Promega) (100 μL) was added into every well. After 5 minutes, the total luminescence was measured with a luminometer. CC50 was determined with GraphPad prism template.

[2] = Cell cytotoxicity 50 assay (CC50), MB200 cells, cell titer glo; conditions: human
Protocol: as §1, with “(CC50) MB200 cells were grown until 80% confluent in F10 media supplemented with rhFGF basic (10 ng/ml), 15% fetal bovine serum, 1% penicillin streptomycin, 1% amphotericin B, and 1 μM dexamethasone. Adherent MB200 cells growing on 10 cm plate were then trypsinized with 1 ml of trypsin. Once the cells detached from the plate, F10 media (10 mL) was added, and the cells were strained through a 70 μm cell strainer. The cells were counted using a mixture of 10 μL cell suspension with 10 μL of trypan blue. Once the total number of cells were counted, a dilution of 200 k/mL was prepared, and the cells were seeded with 10 k cells/well in a 96-well plate in triplicate, making sure to avoid seeding cells in the edges of the plate to avoid edge effects. Using a multichannel pipet, the 200 k/mL cell dilution (50 μL/well) was added into wells B2-B11, C2-C11, and D2-D11 in triplicate.” for “(CC50)”

MBD3L2 RNA = assay: RNA isolation and qPCR to determine MBD3L2 RNA levels in FSHD cells; conditions: 48 hrs
Protocol: Protocol for RNA Isolation and qPCR to Determine MBD3L2 RNA Levels The protocol describes the process of isolating RNA from cultured cells, converting the RNA to complementary DNA (cDNA), and measuring target gene expression using a quantitative polymerase chain reaction (qPCR). The seed FSHD cells were dispensed into a six-well dish. One day after seeding, the DUX4 inhibitor (11 μM or 3.6 μM/well) was added to the cells. After another 48 hrs, the old media was removed from the cells. The cells were washed with 2 mL of warm phosphate buffered saline (PBS). The PBS was aspirated, and the cells were lysed in each well with 350 μL of RLT buffer+3.5 μL of beta-mercaptoethanol (BME). The lysates were added to fresh, RNAse-free, labeled Eppendorf tubes. The cells were then physically disrupted for […] at level 4 of the bead disrupter to ensure the release of the RNA. The RNA was collected according to standard procedures (i.e., Qiagen kit instructions) as discussed below. The RNA concentrations were standardized to […]. In a PCR tube, RNA (2 μg) in a new Eppendorf tube was diluted with RNase-free water to a 9.5 μL final volume of […] RNA. DNase was used to remove any DNA contamination. A DNase Master Mix was prepared from 1.5 μL/reaction DNase solution (1 unit/μL, Promega), 3 μL/reaction 5× RT buffer (i.e., 250 mM Tris-HCl (pH 8.3), 375 mM KCl, 15 mM MgCl2, and 500 μl 0.1 M DTT; Promega MMLV), and 1 μL/reaction RNase inhibitor solution (RNasin, 40 units/μL, Promega). The DNase Master Mix was added to the standardized RNA samples (5.5 μL/sample). The samples were mixed by agitation and briefly spun down by centrifuge. The samples were heated to 37° C. for 60 min, 80° C. for 5 min, and then cooled to 4° C. The samples were stored on ice until the addition of the next reagents. An RT Reaction Master Mix was prepared from 5 μL/reaction 5× RT buffer, 2 μL/reaction dNTP solution (2.5 mM in each nucleotide), 1 μL/reaction RNase inhibitor solution (RNasin, 40 units/μL, Promega), 1.6 μL/reaction M-MLV reverse transcriptase (200 units/μL, Promega), and 13.4 μL/reaction deionized, RNase-free water. The RT Reaction Master Mix was cooled on ice until use. A 50 μM solution of Random Primer 6 random hexanucleotides (2 μL) was added to each sample. The samples were mixed by agitation and briefly spun down by centrifuge. The samples were heated to 70° C. for 5 min and then cooled to 4° C. The RT Reaction Master Mix (23 μL) was added to each sample. The samples were mixed by agitation and briefly spun down by centrifuge. To convert the RNA to cDNA, the samples were heated to 42° C. for 60 min, 95° C. for 5 min, and then cooled to 4° C. The cDNA product mixture was diluted 5:1 with deionized water (40 μL+160 μL). The samples were run in triplicate, with a methyl-CpG-binding protein 3-like 2 (MBD3L2) target primer and a eukaryotic translation elongation factor 1-alpha (EEF1A) control primer. An qPCR Master Mix was prepared for each primer and stored on ice (4° C.) until use. The qPCR Master Mix included 10 μL/reaction SYBR Green Mix (2×) (ThermoFisher), 1 μL/reaction of the primer mix (i.e., the MBD3L2 PCR Primer mix or the EEF1A Primer mix), and 4 μL/reaction deionized, RNase-free water. To set up the qPCR plate, 15 μL of the appropriate qPCR Master Mix was added to the appropriate wells for each target/primer. After all the targets/primers have been added to the wells, 5 μL of the sample was added to the corresponding wells so that each well is 20 μL total. The plate was covered with a clear sheet. An qPCR run was set up (QuantStudio 5) with the following cycle: […]

Row | SMILES | CC50 at 72 h [1] | CC50 at 72 h [2] | qPCR MBD3L2 Inhib at 11 µM (MBD3L2 RNA)
1 | N#Cc1ccc2nc(-c3ccc(NC(=O)CCN4C(=O)CCC4=O)cc3)sc2c1 [Compound 54] | > 10 µM | 1 to 10 µM | YES
2 | CC(=O)NC1CC(C(=O)Nc2ccc(-c3nc4ccccc4s3)cc2)C1 (stereo not drawn) [Compound 86] | > 10 µM | > 10 µM | YES
3 | CCC(=O)NCCCC(=O)Nc1ccc(-c2nc3ccccc3s2)cc1 [Compound 10] | > 10 µM | > 10 µM | YES
4 | CC(=O)NCCCC(=O)Nc1ccc(-c2nc3ccccc3s2)nc1 [Compound 32] | > 10 µM | > 10 µM | YES
5 | CC(=O)NCCCC(=O)Nc1ccc(-c2nc3ccccc3s2)cc1 [Compound 5] | > 10 µM | > 10 µM | YES
6 | CC(C)C(=O)NCCCC(=O)Nc1ccc(-c2nc3ccccc3s2)cc1 [Compound 31] | > 10 µM | > 10 µM | YES
7 | CC(=O)NCC(C)CC(=O)Nc1ccc(-c2nc3ccccc3s2)cc1 (stereo not drawn) [Compound 9] | > 10 µM | > 10 µM | YES
8 | O=C(CCCN1C(=O)CCC1=O)NCc1ccc(-c2nc3ccccc3s2)cc1 [Compound 93] | > 10 µM | > 10 µM | YES
9 | O=C(CCN1C(=O)CCC1=O)Nc1ccc(-c2nc3ccccc3s2)nc1 [Compound 37] | > 10 µM | > 10 µM | YES
10 | O=C(CCCc1cccnc1)Nc1ccc(-c2nc3cc(F)ccc3s2)cc1 [Compound 155] | 1 to 10 µM | > 10 µM | YES
11 | O=C(CCCN1CCCC1=O)NCc1ccc(-c2nc3ccccc3s2)cc1 [Compound 109] | > 10 µM | > 10 µM | YES
12 | CC(=O)NCCCC(=O)Nc1ccc(CCc2nc3ccccc3s2)cc1 [Compound 174] | > 10 µM | > 10 µM | YES
13 | CC(=O)NC1CCC(C(=O)Nc2ccc(-c3nc4ccccc4s3)cc2)C1 (stereo not drawn) [Compound 85] | > 10 µM | > 10 µM | YES
14 | CC(=O)NCCCCC(=O)Nc1ccc(-c2nc3ccccc3s2)o1 [Compound 175] | > 10 µM | > 10 µM | YES
15 | CC(=O)NC(C)(C)/C=C/C(=O)Nc1ccc(-c2nc3ccccc3s2)cc1 [Compound 104] | > 10 µM | > 10 µM | YES
16 | CC(=O)NCCNC(=O)Cc1ccc(-c2nc3cc(F)ccc3s2)cc1 [Compound 111] | > 10 µM | > 10 µM | YES
